# Measurements reported in patent US10428151B2, “Treatment of hematologic malignancies with an anti-CXCR4 antibody” (BRISTOL-MYERS SQUIBB COMPANY, priority 2011, dated 2019).
# Where “and” joins values, the source holds several entries; their conditions need not be identical. Equal values may be shown once.
# What was measured:
# RPMI-8226 cells = assay: RPMI-8226 MM xenograft in SCID mice; type: in vivo
# Procedure: The mice were randomized (n=8) when the tumor volume reached approximately 20 mm^3, dosed on Days 0, 3, 7, 10 and 14 with MDX-1338 (10 mg/kg/dose) alone or in combination with 50 mg/kg lenalidomide or in combination with 0.8 mg/kg bortezomib.
# primary MM cells = conditions: Roccaro et al., 2012; cited from earlier work
# [1] = test system: Bortezomib-resistant JJN-3R cells; assay: JJN-3R MM xenograft in SCID mice; type: in vivo
# CLL cells [2] = conditions: 2-200 nM; Kashyap et al., 2012; cited from earlier work
# MM cells [3] = conditions: compared to vehicle-treated mice; Roccaro et al., 2012; cited from earlier work
# CLL cells [4] = conditions: Kashyap et al., 2012; cited from earlier work
# Nomo-1 = Nomo-1 AML xenograft; type: in vivo, SCID mice
# From the text: In the Nomo-1 model (7.5 million cells implanted subcutaneously as in Example 14).
# MM.1S cells = assay: MM.1S MM xenograft in SCID mice; type: in vivo
# B16-CXCR4 cells = assay: B16-CXCR4 lung metastases, C57 mouse systemic tumor model; type: in vivo; conditions: day 14, 5 mg/kg IP
# Procedure: In this example, the ability of the F7 anti-CXCR4 mAb to inhibit lung metastases was examined using a C57 mouse systemic tumor model. More specifically, 0.4×10^6 B16-CXCR4 cells (B16 cells transfected to express human CXCR4) were injected intravenously into each of 30 mice of the C57 strain. The mice were randomized into three groups of ten mice each, which were then treated with either (i) vehicle (PBS); (ii) IgG4 isotype control (5 mg/kg); or (iii) F7 IgG4 (5 mg/kg). The antibody or vehicle was injected intraperitoneally 30 minutes after the B16-CXCR4 cells were injected intravenously. Lungs were harvested on day 14 and the number of lung metastasis nodules was quantitated.
# Ramos cells = assay: Ramos subcutaneous tumor cell model; type: in vivo, mouse; conditions: IP day 0 and 7; 15 mg/kg (Fab′ 10 mg/kg, also day 3 and 10)
# From the text: In this example, the ability of the anti-CXCR4 human antibodies to inhibit proliferation of an established solid tumor in vivo was examined using a Ramos subcutaneous tumor cell model. In this assay, 10×10^6 Ramos cells/mouse were implanted into the flank region of each mouse and allowed to grow to a mean size of 40 mm^3, calculated by length×width×height/2 of the tumors. The mice then received an intraperitoneal (IP) injection of a first dose of antibody (designated as day 0 of treatment) and received a second IP dose of antibody on day 7. Mice treated with a Fab′ fragment antibody also received IP antibody doses on day 3 and day 10. […] Tumor volume and mouse body weight were measured at regular intervals (approximately 2-3 times/week) between day 0 and day 30 post dosing. The results of the experiment are presented in FIGS. 12A, 12B and 12C, which show mean tumor volume (FIG. 12A), median tumor volume (FIG. 12B) and median % body weight change (FIG. 12C). […] All treatments were well-tolerated as indicated by no significant body weight change. The differences in body weights between treatments were most likely due to the weights of the tumors.
# [5] = test system: Twist, Snail, Slug, E-Cadherin; conditions: Roccaro et al., 2012; cited from earlier work
# CCRF-CEM = CCRF-CEM tumor growth inhibition (monotherapy); type: in vivo
# HL-60 cells = assay: HL-60 AML xenograft in SCID mice; type: in vivo; conditions: for median tumor growth inhibition: Day 27, 10 mg/kg/dose
# From the text: To assess the antibody's efficacy in AML, two cytarabine-resistant mouse xenograft models, HL-60 and Nomo-1 were used. CXCR4 expression in each cell line was confirmed by FACS staining (FIG. 4A). SCID mice were subcutaneously implanted with 10 million HL-60 cells as described in Example 14.
# melanoma = melanoma xenograft model; compared to vehicle-treated mice; Roccaro et al., 2012; cited from earlier work
# [6] = test system: Namalwa Burkitt's lymphoma cells; assay: Namalwa subcutaneous xenograft; type: in vivo, mouse
# Procedure: Additional subcutaneous xenograft tumor models were tested for the ability of anti-CXCR4 antibodies to inhibit tumor growth, in experiments similar to those described above and in Example 9. […] Although the tumor cells in vivo were stainable by the mAb by immunohistochemistry, it is unclear at what stage of their tumor growth CXCR4 began to be expressed.
# Ramos tumor cells = assay: Ramos cell proliferation, 3H-thymidine incorporation; type: cell-based, human; conditions: 10^−3 to 300 nM; 72 hours
# Procedure: In this example, the ability of the anti-CXCR4 human antibodies to inhibit proliferation of Ramos tumor cells (a human Burkitt's lymphoma cell line) in vitro was examined. […] The cells were incubated with antibody for 72 hours, with ^3H-thymidine being added for the final 24 hours of incubation to allow for monitoring of cell proliferation. Following the incubation, incorporation of ^3H-thymidine by the cells was measured by standard techniques. The results are shown in the graph of FIG. 11A.
# MM cells [7] = assay: Apoptotic and CXCL12 signalling pathways in MM cells; type: cell-based
# From the text: The BMS936564 antibody targeted MM cells in the context of BM milieu by overcoming BMSC-induced proliferation of tumor cells. […] Importantly, as described in Example 16, BMS936564 inhibited MM cell proliferation in vivo in xenograft mouse models.
substance,measurement,setting,value
"BMS-936564: fully human anti-CXCR4 monoclonal antibody; VH SEQ ID NO: 25, VL SEQ ID NO: 29",delay of mean tumor growth,"RPMI-8226 cells; Day 44, 10 mg/kg/dose, compared to vehicle control",53%
same,mean tumor growth inhibition,"RPMI-8226 cells; Day 44, compared to isotype control, MDX-1338 10 mg/kg, lenalidomide 50 mg/kg, bortezomib 0.8 mg/kg",61%
same,tumor growth inhibition,RPMI-8226 cells; RPMI-8226,MDX-1338 = 61%
same,adhesion of primary MM cells to BMSCs,primary MM cells,inhibited by BMS936564 in a dose-dependent manner
same,mice tumor-free at the end of study,[1]; 30-mg/kg group,4 out of 7
same,% Tumor Growth Inhibition (Monotherapy),[1]; JJN3R,97%
same,tumor growth inhibition,[1]; JJN-3R,MDX-1338 = 100%
same,median tumor growth inhibition,"[1]; day 25, 10 or 30 mg/kg/dose IP, compared to isotype control",100%
same,cell death in CLL cells cultured alone and in the MRD model,CLL cells [2],induced cell death
same,MM cell dissemination to distant bone marrow niches,MM cells [3],less MM cell dissemination
same,inhibition of CXCL12-mediated F-actin polymerization in CLL cells,CLL cells [4],at lower concentrations than with AMD-3100
same,% Tumor Growth Inhibition (Monotherapy),Nomo-1; Nomo-1,88%
same,median tumor growth inhibition,"Nomo-1; day 34, 10 mg/kg/dose, compared to isotype or vehicle control",88%
same,mean tumor growth inhibition,"MM.1S cells; Day 25, compared to isotype control, MDX-1338 10 mg/kg/dose, lenalidomide 100 mg/kg",60%
same,% Tumor Growth Inhibition (Monotherapy),MM.1S cells; MM.1S,49%
same,tumor growth inhibition,MM.1S cells; MM.1S,MDX-1338 = 60%
same,Number of Lung Metastases Mean,B16-CXCR4 cells,157
same,Number of Lung Metastases Median,B16-CXCR4 cells,186
same,% Inhibition of Lung Mets (Mean),"B16-CXCR4 cells; listed as F7 Anti-CXCR4 IgG4, 5 mg/kg",56%
same,% Inhibition of Lung Mets (Mean),"B16-CXCR4 cells; listed as F7 mAb, 5 mg/kg",56%
same,tumor cell growth (tumor volume),Ramos cells,significantly inhibited tumor cell growth
same,effect on EMT-related proteins,[5],"inhibits the EMT-related proteins Twist, Snail and Slug, and up-regulates E-Cadherin"
same,% Tumor Growth Inhibition (Monotherapy),CCRF-CEM,72%
same,median tumor growth inhibition,HL-60 cells; compared to isotype,88%
same,median tumor growth inhibition,HL-60 cells; compared to vehicle,83%
same,% Tumor Growth Inhibition (Monotherapy),HL-60 cells; HL60,60% and 82%
same,number of metastasis,melanoma,reduced number of metastasis
same,% Tumor Growth Inhibition (Monotherapy),[6],66%
same,tumor growth inhibition,[6]; 3 mg/kg,approximately 70%
same,inhibition of Ramos cell proliferation (3H-thymidine incorporation),Ramos tumor cells,able to inhibit Ramos cell proliferation
same,"CXCL12-induced ERK-, Aid-, and Src-phosphorylation",MM cells [7],inhibited by BMS936564 in a dose-dependent manner
same,activation of apoptotic pathways in MM cells,MM cells [7],cleavage of caspase-9 and PARP
